Like-named read-outs stand apart in the source and are kept apart here.
Experiments:
RAW 264.7 cells = assay: LPS- or IFNγ-induced reactive nitrogen intermediate (RNI) production, Griess nitrite assay; format: cell-based, murine
Procedure: From the sequence of the CAP18 cDNA, it was apparent that the putative N-terminal peptide of CAP18 was in fact an internal fragment of the CAP18 protein. We therefore tried to reconfirm the original protein sequence. Neutrophil-derived heparin bound cationic proteins were prepared as described above and applied to a C18 reverse phase HPLC (FIG. 1). We sequenced the major peaks. Peaks at fractions 14.5 and 15.2 correspond to defensins MCP1 and MCP2 (Territo et al. (1989) J. Clin. Invest. 84:2017-2019), respectively. Fraction 25.8 is macrophage related protein 14 (MRP14) (Odink et al. (1987) Nature 330:80-82). The fraction at 20.3 minutes corresponds to a fragment of CAP18 of approximately 4-5 kD. […] The murine macrophage cell line RAW 264.7 (obtained from ATCC) and thioglycollate-elicited murine peritoneal exudate cells are used to produce RNI. Cells are cultured at 1×10^6 /ml. in RPMI-1640 +2.5% FCS in 24 well plates in the presence or absence of different concentrations of LPS or murine rlFNγ. After 24 hr. incubation at 37° C., the cell free supernatant is collected and tested for the presence of RNI. Accumulation of nitrite in the medium is measured by a calorimetric assay based on the Griess reaction (Green et al. (1982) Anal. Biochem. 126:11) using sodium nitrite as standards. Sample (50 μl) is mixed with 50 μl of Griess reagent (1% sulfanilamide, 0.1% naphthalene diamine dihydrochloride, 2.5% H3 PO4) and after 10 min. at room temperature absorbance is read at 570 nm.

[1] = system: Salmonella minnesota ReLPS sensitized sheep erythrocytes; assay: LPS hemagglutination assay (MAC); format: binding
Procedure: (§1) For hemagglutination assays, erythrocytes were sensitized with LPS as follows. One ml of 1% erythrocyte suspension (human 0 type, C3H/HeN mouse or sheep) was mixed with 0.2 ml of LPS solution and incubated at 37° C. for 30 min, followed by washing with phosphate buffered saline (PBS), and then the concentration of suspension was adjusted to 1.0%. In the case of S-LPS, the solution was heated at 100° C. for 1 hour before sensitization of erythrocytes. […] Activity of CAP was expressed as a minimum agglutinating concentration (MAC) of CAP. According to the method of Kirikae et al. (1986) Microbiol. Immunol. 30:269-274, 50 μl of 2-fold serial dilution of Re-LPS was added to 50 μl of 1.0% rabbit erythrocyte suspension, and incubated at 37° C. for 3 hour. Minimum agglutinating concentration of Re-LPS was expressed as 1 HA unit.

E. coli 0111:B4 LPS = assay: Inhibition of RNIP-mediated hemagglutination by LPS preparation; format: binding; conditions: Peptide #36-1 16 μg/ml, RNIP (#197) 25 μg/ml preincubated with LPS 37° 30 minutes
Procedure: as §1
(§2) Another series of experiments was performed to determine if the #36-1 and #197 (RNIP) peptides were capable of binding to LPS from various species of Gram-negative bacteria. For these experiments, sheep red blood cells were sensitized with Salmonella minnesota Re-LPS. Peptides #36-1 and #197 (RNIP) were preincubated with various preparations of LPS. Both peptides bind to a diverse group of lipopolysaccharides.
(§3) +Peptide #361 (16 μg/ml) and RNIP (#197) (25 μg/ml) were
(§4) preincubated with each LPS preparation at 37° for 30 minutes, and
(§5) each reaction mixture was added to sheep erythrocytes sensitized with […]

E. coli 0127:B8 LPS = assay: as above; format: binding; conditions: Peptide #36-1 16 μg/ml, RNIP (#197) 25 μg/ml preincubated with LPS 37° 30 minutes
Procedure: as §1, §2, §3, §4, §5

E. coli 055:B5 LPS = assay: as above; format: binding; conditions: Peptide #36-1 16 μg/ml, RNIP (#197) 25 μg/ml preincubated with LPS 37° 30 minutes
Procedure: as §1, §2, §3, §4, §5

E. coli J5 LPS = assay: as above; format: binding; conditions: Peptide #36-1 16 μg/ml, RNIP (#197) 25 μg/ml preincubated with LPS 37° 30 minutes
Procedure: as §1, §2, §3, §4, §5

[2] = system: Klebsiella pneumoniae LPS; assay: as above; format: binding; conditions: Peptide #36-1 16 μg/ml, RNIP (#197) 25 μg/ml preincubated with LPS 37° 30 minutes
Procedure: as §1, §2, §3, §4, §5

[3] = system: Pseudomonas aeruginosa F-D Type I LPS; assay: as above; format: binding; conditions: Peptide #36-1 16 μg/ml, RNIP (#197) 25 μg/ml preincubated with LPS 37° 30 minutes
Procedure: as §1, §2, §3, §4, §5

[4] = system: Salmonella minnesota R595 LPS; assay: as above; format: binding; conditions: Peptide #36-1 16 μg/ml, RNIP (#197) 25 μg/ml preincubated with LPS 37° 30 minutes
Procedure: as §1, §2, §3, §4, §5

[5] = system: thioglycollate-stimulated murine peritoneal macrophages; assay: LPS-induced tissue factor generation by macrophages (clotting assay); format: cell-based; conditions: peptides 1 μg/ml incubated with S. minnesota smooth LPS 5 minutes; 6 hr
Procedure: Tissue factor assay. Salmonella minnesota smooth LPS was incubated with each peptide (1 μg/ml) for 5 min., then the mixture was added to peritoneal murine macrophages obtained 4 days after thioglycollate stimulation. Cells were cultured for 6 hours prior to assay of tissue factor by clotting assay.
Various concentrations of Salmonella minnesota smooth LPS were incubated with each peptide (197 (RNIP), 36-1, 32-1, and 50-2) at 37° C. for 5 minutes prior to mixing with thioglycollate-stimulated murine peritoneal macrophages. Production of tissue factor after 6 hr. was measured by clotting assay. […] In the absence of LPS no tissue factor is synthesized by these cells.

Human plasma [6] = assay: Prothrombin time (PT); format: biochemical
Procedure: Prothrombin time (PT). Human plasma (100 μl) was incubated with 100 μl of each peptide at 37° C. for 3 min., then 100 μl of tissue factor (250 μg/ml) CaCl2 was added and clotting time was measured.

Human plasma [7] = assay: Partial thromboplastin time (PTT); format: biochemical; conditions: dose dependent
Procedure: Partial thromboplastin time (PTT). Human plasma (100 μl) was incubated with each peptide (100 μl) at 37° C. for 3 min., then 100 μl of CaCl2 containing phospholipid was added and clotting time was measured.

factor Xa = molecular target: T1, factor Xa (Homo sapiens, UniProt P00742); assay: Direct Xa inhibition using Xa substrate S2222; format: biochemical; conditions: concentrations over 10 μg/ml
T1 construct: purchased Sigma Chemical Co., St. Louis, Mo
T1 sequence (P00742 235-488 limits assumed): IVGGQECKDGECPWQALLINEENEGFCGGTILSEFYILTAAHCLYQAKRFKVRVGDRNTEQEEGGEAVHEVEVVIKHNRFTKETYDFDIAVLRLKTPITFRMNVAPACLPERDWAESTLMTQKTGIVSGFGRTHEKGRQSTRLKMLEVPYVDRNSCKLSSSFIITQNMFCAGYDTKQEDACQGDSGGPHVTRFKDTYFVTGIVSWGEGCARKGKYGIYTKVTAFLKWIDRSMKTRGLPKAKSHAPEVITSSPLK
T1 sequence (P00742 41-179 limits assumed): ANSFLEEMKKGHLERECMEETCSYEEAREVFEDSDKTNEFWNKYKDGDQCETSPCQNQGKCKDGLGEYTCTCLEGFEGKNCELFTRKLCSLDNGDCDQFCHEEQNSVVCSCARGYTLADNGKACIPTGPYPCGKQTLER
Description: Clotting method: Human plasma (Ortho plasma control, Ortho Diagnostic Co.). ATPP reagent(Organo-technika, Tokyo, Japan). Standard tissue factor, rabbit brain thromboplastin (Simplastin, ONO Pharmaceutical, Tokyo, Japan). Purified human factor VII, factor X, factor Xa (Sigma Chemical Co., St. Louis, Mo.). Russell Viper venom (RVV) and Echis Carinatus venom (ECV, Sigma Co.).
Synthetic chromogenic substrate method: Substrate for factor Xa, S2222 (Kabi, Bz-Ile-Glu-Arg-pNA) was used. Substrate for factor II (prothrombin), Boc-Val-Pro-Arg-pNA (Sigma Chemical Co.) was used.

factor X = molecular target: T2, factor X (Homo sapiens, UniProt P00742); assay: Factor X activation by tissue factor and factor VII, synthetic substrate S-2222; format: biochemical
T2 construct: purchased Sigma Chemical Co., St. Louis, Mo
T2 sequence (P00742 183-488): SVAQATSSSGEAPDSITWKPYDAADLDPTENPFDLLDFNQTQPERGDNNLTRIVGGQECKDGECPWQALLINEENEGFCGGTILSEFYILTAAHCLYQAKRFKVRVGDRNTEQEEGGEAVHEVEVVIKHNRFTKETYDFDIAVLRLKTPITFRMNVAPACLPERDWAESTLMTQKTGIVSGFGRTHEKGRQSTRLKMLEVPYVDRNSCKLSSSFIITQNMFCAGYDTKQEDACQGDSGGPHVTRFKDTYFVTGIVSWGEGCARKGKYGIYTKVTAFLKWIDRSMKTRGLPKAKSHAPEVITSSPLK
T2 sequence (P00742 41-179): as the sequence (P00742 41-179 limits assumed) above
Procedure: Factor Xa activity using synthetic substrate. A reaction mixture of factor VII (1 unit/ml, 200 μl), factor X (1 unit/ml, 200 μl), tissue factor (2.5 mg/ml, 50 μl), 25 mM-CaCl2 (50 μl) and 50 μl of several concentration of peptide was incubated at 37° C. for 10 min. To 200 Al of the reaction mixture, 60 μl of 4 mM S-2222, a synthetic substrate for factor Xa, and 340 μl of Tris-HCl buffer, pH 8.2, was added and further incubated for 15 min. The reaction was stopped by adding 60 μl of 50% acetic acid, and OD for p-nitroaniline was read at 405 nm.

prothrombin (factor II) = prothrombin (factor II) (Homo sapiens, UniProt P00734); assay: Prothrombin activation by Echis Carinatus venom (ECV); format: biochemical
Procedure: Prothrombin activation by Echis Carinatus venom (ECV). A reaction mixture of prothrombin (factor II) (0.1 unit/ml, 200 μl), ECV (1 unit/ml, 200 μl), various concentration of peptide (70 μl), 50 μl of 25 mM-CaCl2 and 180 μl of Tris buffer was incubated at 37° C. for 10 min. To 300 μl of the reaction mixture, 60 μl of 4 mM-thrombin substrate and 240 μl of buffer was added and further incubated for 15 min.

coagulation = assay: Anti-coagulant activity of human RNIP (preliminary studies); format: biochemical
encapsulated E. coli = conditions: cited from earlier work
[8] = system: rough mutant strain of Proteus mirabilis; conditions: cited from earlier work
[9] = system: wild-type smooth Proteus mirabilis; conditions: wild-type smooth organism (Proteus mirabilis); cited from earlier work
Staphylococcus aureus = conditions: Gram-positive Staphylococcus aureus; cited from earlier work

Question: What does the source list for “36-1: synthetic rabbit RNIP fragment, amino acids 135-166 of SEQ ID NO:4 (GLRKRLRKFRNKIKEKLKKIGQKIQGLLPKLA) [Peptide 36-1]”?
Answer: concentrations at which peptides are active in the bioassay (RAW 264.7 cells; day-to-day variation in the bioassay): 10 to 50 nM; inhibition of LPS-induced RNI production (in words) (RAW 264.7 cells; macrophages / RAW 264.7 cells): active; Hemagglutination [MAC], minimum agglutinating concentration [1]: 3.9 µg/mL; MIC, minimal inhibitory concentration of LPS (E. coli 0111:B4 LPS): 15.6 µg/mL; MIC, minimal inhibitory concentration of LPS (E. coli 0127:B8 LPS): 15.6 µg/mL; MIC, minimal inhibitory concentration of LPS (E. coli 055:B5 LPS): 15.6 µg/mL; MIC, minimal inhibitory concentration of LPS (E. coli J5 LPS): 7.8 µg/mL; MIC, minimal inhibitory concentration of LPS [2]: 31.3 µg/mL; MIC, minimal inhibitory concentration of LPS [3]: 3.9 µg/mL; MIC, minimal inhibitory concentration of LPS [4]: 15.6 µg/mL; inhibition of LPS induced tissue factor (in words) [5]: inhibition; inhibition of the prothrombin time (PT), in words (Human plasma [6]): inhibited; inhibition of the partial thromboplastin time (PTT), in words (Human plasma [7]): inhibited; direct Xa inhibition (in words) (factor Xa): No evidence of direct Xa inhibition; IC50, Tissue factor VII, X to Xa (factor X; synthetic substrate): 0.3 to 0.7 µg/mL; IC50 (factor X; text value for both peptides, read-out: IC50, factor X activated by tissue factor and purified factor VII): 40 to 100 nM; inhibition of Echis carinatus venom activation of purified factor II to IIa (in words) (prothrombin (factor II)): inhibited

Question: Which “anti-coagulant activity (in words)” value (coagulation) does the source give for “human RNIP: synthetic polypeptide comprising amino acids 134 to 170 of SEQ ID NO:2 (LLGDFFRKSKEKIGKEFKRIVQRIKDFLRNLVPRTES)” here?
Answer: The value was “lacks significant anti-coagulant activity”.

Question: And the “anti-coagulant activity (in words)” value (coagulation; listed as Human RNIP)?
Answer: The value was “free from anti-coagulant activity”.

B1: BPI55: BPI holoprotein (protein, UniProt P17213 32-487, looked up)
Bactericidal …: VNPGVVVRISQKGLDYASQQGTAALQKELKRIKIPDYSDSFKIKHLGKGHYSFYSMDIREFQLPSSQISMVPNVGLKFSISNANIKISGKWKAQKRFLKMSGNFDLSIEGMSISADLKLGSNPTSGKPTITCSSCSSHINSVHVHISKSKVGWLIQLFHKKIESALRNKMNSQVCEKVTNSVSSELQPYFQTLPVMTKIDSVAGINYGLVAPPATTAETLDVQMKGEFYSENHHNPPPFAPPVMEFPAAHDRMVYLGLSDYFFNTAGLVYQEAGVLKMTLRDDMIPKESKFRLTTKFFGTFLPEVAKKFPNMKIQIHVSASTPPHLSVQPTGLTFYPAVDVQAFAVLPNSSLASLFLIGMHTTGSMEVSAESNRLVGELKLDRLLLELKHSNIGPFPVELLQDIMNYIVPILVLPRVNEKLQKGFPLPTPARVQLYNVVLQPHQNFLLFGADVVYK
Question: With B1 as the molecule, how does the “growth inhibitory activity, reduction over control” value (encapsulated E. coli) read?
Answer: Its value is “about 100 fold”.

Question: And the growth inhibition [8]?
Answer: Its growth inhibition is “inhibited the growth”.

Question: And the growth inhibition [9]?
Answer: The growth inhibition was “only the rBPI23 inhibited growth”.

Question: What about the growth inhibition (Staphylococcus aureus) of the same molecule?
Answer: Its growth inhibition is “Neither rBPI23 nor holoprotein BPI55 demonstrated inhibition”.

Source: patent publication US6103888A, “Mammalian cationic proteins having lipopolysaccharide binding and anti-coagulant activity” (priority 1999, dated 2000)
